The record followed here is US20250171438A1 (Agios Pharmaceuticals, Inc., priority 2022, published 2025).

Where only a bound is given, the exact number is not on record here.

One assay has as its target T1, human PAH with the R408W mutation (Homo sapiens, UniProt P00439, R408W).
T1 construct: expressed in transfected cells
T1 sequence (P00439 1-452 R408W): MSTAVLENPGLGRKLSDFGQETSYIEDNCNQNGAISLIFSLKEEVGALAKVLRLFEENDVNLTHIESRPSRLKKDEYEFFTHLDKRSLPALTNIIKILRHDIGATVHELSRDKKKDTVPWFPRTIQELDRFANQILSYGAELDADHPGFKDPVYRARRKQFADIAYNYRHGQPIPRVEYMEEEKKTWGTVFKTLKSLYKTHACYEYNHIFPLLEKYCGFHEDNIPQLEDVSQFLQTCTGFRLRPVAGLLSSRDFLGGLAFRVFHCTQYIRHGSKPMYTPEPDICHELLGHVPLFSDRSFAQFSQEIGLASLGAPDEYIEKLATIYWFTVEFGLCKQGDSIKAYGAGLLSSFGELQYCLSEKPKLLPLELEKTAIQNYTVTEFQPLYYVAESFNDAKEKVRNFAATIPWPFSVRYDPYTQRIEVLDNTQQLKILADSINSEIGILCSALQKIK
The assay can be described thus: Cell Based Phenylalanine Flux Assay. Set-up: scale not given here. As to conditions: A375 cells expressing human R408W PAH; 24 hrs compound incubation; 13C-Tyrosine by LC-MS; average where tested multiple times; read-out: AC50.
Turning to `O=C(c1cnsc1)N1CCc2[nH]cnc2[C@H]1c1nc2ccccc2s1` [Example 1061], the AC50 (as a rule, the concentration giving half of the maximal activity seen) lay in the range of 500 to 1000 nM. As for `O=C(c1oc(CCN2CC(F)C2)nc1C(F)(F)F)N1CCc2[nH]cnc2[C@H]1c1nc2ccccc2s1` [Example 1575], the AC50 is under 500 nM. With `O=C(c1nnc(-c2cc[nH]n2)o1)N1CCc2[nH]cnc2[C@H]1c1nc2ccccc2s1` [Example 1899], the AC50 was under 500 nM. Regarding `O=C(c1cnc(-c2cnn(CC(F)(F)F)c2)o1)N1CCc2[nH]cnc2[C@H]1c1nc2ccccc2s1` [Example 1391], the AC50 was under 500 nM. Take `O=C(c1oc(C2(O)CC2)nc1C(F)F)N1CCc2[nH]cnc2[C@H]1c1nc2c(F)cccc2s1` [Example 1995]: the AC50 was under 500 nM. In the case of `Cc1nc(C(C)(C)F)oc1C(=O)N1CCc2[nH]cnc2[C@@H]1c1nc2ccccc2s1` [Example 1498, (R)-(4-(benzo[d]thiazol-2-yl)-6,7-dihydro-1H-imidazo[4,5-c]pyridin-5(4H)-yl)(2-(2-fluoropropan-2-yl)-4-methyloxazol-5-yl)methanone], the AC50 lay within 1000 to 5000 nM. `O=C(c1ccn2ncccc12)N1CCc2[nH]cnc2[C@@H]1c1nc2ccccc2s1` [Example 1530, (R)-(4-(benzo[d]thiazol-2-yl)-6,7-dihydro-1H-imidazo[4,5-c]pyridin-5(4H)-yl)(pyrrolo[1,2-b]pyridazin-5-yl)methanone]: the AC50 is over 5000 nM. Same read-out and setting: the same measure for `COc1cccc(/C=C/C(=O)N2CCc3[nH]cnc3[C@@H]2c2nc3ccccc3s2)c1` [Example 1012, (R,E)-1-(4-(benzo[d]thiazol-2-yl)-6,7-dihydro-1H-imidazo[4,5-c]pyridin-5(4H)-yl)-3-(3-methoxyphenyl)prop-2-en-1-one]: over 5000 nM; for `CC1(C)CCC(c2ncc(C(=O)N3CCc4[nH]cnc4[C@@H]3c3nc4ccccc4s3)s2)CC1` [Example 1354, (R)-(4-(benzo[d]thiazol-2-yl)-6,7-dihydro-1H-imidazo[4,5-c]pyridin-5(4H)-yl)(2-(4,4-dimethylcyclohexyl)thiazol-5-yl)methanone]: 1000 to 5000 nM. Consider `O=C(c1cnn(-c2ccccn2)c1Cl)N1CCc2[nH]cnc2[C@@H]1c1nc2c(F)cccc2s1` [Example 1766, (R)-(5-chloro-1-(pyridin-2-yl)-1H-pyrazol-4-yl)(4-(4-fluorobenzo[d]thiazol-2-yl)-6,7-dihydro-1H-imidazo[4,5-c]pyridin-5(4H)-yl)methanone], for which the AC50 fell in the range of 1000 to 5000 nM.

Turning to `O=C(c1nncs1)N1CCc2[nH]cnc2[C@@H]1c1nc2cc(F)ccc2s1` [Example 1300, (R)-(4-(5-fluorobenzo[d]thiazol-2-yl)-6,7-dihydro-1H-imidazo[4,5-c]pyridin-5(4H)-yl)(1,3,4-thiadiazol-2-yl)methanone], the AC50 lay within 1000 to 5000 nM. In the case of `O=C(c1nc(Cl)cs1)N1CCc2[nH]cnc2[C@H]1c1nc2ccccc2s1` [Example 1057], the AC50 lay within 500 to 1000 nM. Take `O=C(c1oc(/C=C/C2CC2)nc1C(F)(F)F)N1CCc2[nH]cnc2[C@@H]1c1nc2ccccc2s1` [Example 1568, (R,E)-(4-(benzo[d]thiazol-2-yl)-6,7-dihydro-1H-imidazo[4,5-c]pyridin-5(4H)-yl)(2-(2-cyclopropylvinyl)-4-(trifluoromethyl)oxazol-5-yl)methanone]: the AC50 was 1000 to 5000 nM. On to `Cc1nc(C(C)C)oc1C(=O)N1CCc2[nH]cnc2[C@H]1c1nc2ccccc2s1` [Example 1397], for which the AC50 was under 500 nM. Still for that read-out and setting: as for `CC(C)(O)c1nc(Cl)c(C(=O)N2CCc3[nH]cnc3[C@@H]2c2nc3ccccc3s2)o1` [Example 1964, (R)-(4-(benzo[d]thiazol-2-yl)-6,7-dihydro-1H-imidazo[4,5-c]pyridin-5(4H)-yl)(4-chloro-2-(2-hydroxypropan-2-yl)oxazol-5-yl)methanone], the figure is 1000 to 5000 nM; as for `O=C(c1nnc(-c2c(F)cccc2F)o1)N1CCc2[nH]cnc2[C@H]1c1nc2ccccc2s1` [Example 1367], under 500 nM.

In the case of `O=C(c1cnc(C2CC2)s1)N1CCc2[nH]cnc2[C@@H]1c1nc2ccccc2s1` [Example 1180, (R)-(4-(benzo[d]thiazol-2-yl)-6,7-dihydro-1H-imidazo[4,5-c]pyridin-5(4H)-yl)(2-cyclopropylthiazol-5-yl)methanone], the AC50 was 1000 to 5000 nM.

In the case of `O=C(c1nc2ccccc2o1)N1CCc2[nH]cnc2[C@H]1c1nc2ccccc2s1` [Example 1129, (S)-benzo[d]oxazol-2-yl(4-(benzo[d]thiazol-2-yl)-1,4,6,7-tetrahydro-5H-imidazo[4,5-c]pyridin-5-yl)methanone], the AC50 was under 500 nM. As for `O=C(c1cn(CC2CC(F)(F)C2)nc1Cl)N1CCc2[nH]cnc2[C@H]1c1nc2c(F)cccc2s1` [Example 2003, (S)-(3-chloro-1-((3,3-difluorocyclobutyl)methyl)-1H-pyrazol-4-yl)(4-(4-fluorobenzo[d]thiazol-2-yl)-6,7-dihydro-1H-imidazo[4,5-c]pyridin-5(4H)-yl)methanone], the AC50 is under 500 nM.

Regarding `CCn1cnnc1C(=O)N1CCc2[nH]cnc2[C@H]1c1nc2ccccc2s1` [Example 2078], the AC50 is under 500 nM. Take `O=C(c1oc(-c2ccc(F)cn2)nc1C(F)F)N1CCc2[nH]cnc2[C@@H]1c1nc2ccccc2s1` [Example 1745, (R)-(4-(benzo[d]thiazol-2-yl)-6,7-dihydro-1H-imidazo[4,5-c]pyridin-5(4H)-yl)(4-(difluoromethyl)-2-(5-fluoropyridin-2-yl)oxazol-5-yl)methanone]: the AC50 is 500 to 1000 nM. Same read-out and setting: as for `O=C(c1cnn2c(Br)cccc12)N1CCc2[nH]cnc2[C@H]1c1nc2c(F)cccc2s1` [Example 1239], the figure is under 500 nM. As for `O=C(c1cncs1)N1CCc2[nH]cnc2[C@@H]1c1nc2cc(F)ccc2s1` [Example 1194, (R)-(4-(5-fluorobenzo[d]thiazol-2-yl)-6,7-dihydro-1H-imidazo[4,5-c]pyridin-5(4H)-yl)(thiazol-5-yl)methanone], the AC50 was over 5000 nM. Consider `O=C(c1ccnn1C(F)(F)F)N1CCc2[nH]cnc2[C@H]1c1nc2ccccc2s1` [Example 2097], for which the AC50 was under 500 nM. As for `O=C(CCc1nccs1)N1CCc2[nH]cnc2[C@@H]1c1nc2c(F)cccc2s1` [Example 1078, (R)-1-(4-(4-fluorobenzo[d]thiazol-2-yl)-6,7-dihydro-1H-imidazo[4,5-c]pyridin-5(4H)-yl)-3-(thiazol-2-yl)propan-1-one], the AC50 is over 5000 nM. The same measure, in the same setting: the same measure for `O=C(c1nnc(-c2ccc(C(F)(F)F)cc2)o1)N1CCc2[nH]cnc2[C@H]1c1nc2ccccc2s1` [Example 1768]: 500 to 1000 nM; for `Cn1nc(C(=O)N2CCc3[nH]cnc3[C@@H]2c2nc3ccccc3s2)c2ccccc21` [Example 1526, (R)-(4-(benzo[d]thiazol-2-yl)-6,7-dihydro-1H-imidazo[4,5-c]pyridin-5(4H)-yl)(1-methyl-1H-indazol-3-yl)methanone]: 1000 to 5000 nM.

The assay is the same for the next values; noted with them: A375 cells expressing human R408W PAH; 24 hrs with compound; 13C-Tyrosine by LC-MS; average where tested multiple times.
`O=C(c1oc(-c2ccccn2)nc1C(F)(F)F)N1CCc2[nH]cnc2[C@@H]1c1nc2ccccc2s1` (single isomer, unassigned): the AC50 entry was “E, E”. Still for that read-out and setting: the same measure for `O=C(c1c(C(F)(F)F)nn2ccccc12)N1CCc2[nH]cnc2C1c1nc2ccccc2s1` (stereo not drawn): “E, E”. `COCCc1ncc(C(=O)N2CC(C)c3[nH]cnc3C2c2nc3ccccc3s2)o1` [(4R,7S) diastereomer of 2-[5-[2-(2-methoxyethyl)-1,3-oxazole]: the AC50 entry is “E, E”. For the compound `NC(=O)N1CC(C(=O)N2CCc3[nH]cnc3C2c2nc3ccccc3s2)C1` (stereo not drawn), the AC50 entry was “E, E”.

Staying with this assay, now noted: A375 cells expressing human R408W PAH; 24 hrs with compound; 13C-Tyrosine by LC-MS; average where tested multiple times; read-out: AC50.
On to `O=C(c1cnn(CCO)c1Cl)N1CCc2[nH]cnc2C1c1nc2c(F)cccc2s1` (stereo not drawn), for which the AC50 was over 5000 nM.

Regarding `O=C(Cc1nccs1)N1CCc2[nH]cnc2C1c1nc2c(F)cccc2s1` (stereo not drawn), the AC50 lay within 1000 to 5000 nM. As for `O=C(c1cnn2cccc(F)c12)N1CCc2[nH]cnc2C1c1nc2ccc(Cl)cc2[nH]1` (stereo not drawn), the AC50 is over 5000 nM. Consider `CC1CN(C(=O)c2cnc(N3CCOCC3)o2)C(c2nc3ccccc3s2)c2nc[nH]c21` (stereo not drawn), for which the AC50 was 1000 to 5000 nM. For `O=C(CCCc1nc2ccccc2s1)N1CCc2[nH]cnc2[C@H]1c1nc2ccccc2[nH]1` [(S)-1-(4-(1H-benzo[d]imidazol-2-yl)-1,4,6,7-tetrahydro-5H-imidazo[4,5-c]pyridin-5-yl)-4-(benzo[d]thiazol-2-yl)butan-1-one], the AC50 lay within 1000 to 5000 nM. Take `Cn1cc(-c2cnc(CC(=O)N3CCc4[nH]cnc4C3c3nc4ccccc4s3)s2)cn1` (stereo not drawn): the AC50 lay in the range of 1000 to 5000 nM. For the compound `O=C(c1cnn2cccc(F)c12)N1CCc2[nH]cnc2C1c1nc2ccc(F)cc2s1` (stereo not drawn), the AC50 is over 5000 nM. As for `Cc1nnc(C(=O)N2CC(C)c3[nH]cnc3C2c2nc3ccccc3s2)o1` (stereo not drawn), the AC50 fell in the range of 1000 to 5000 nM. With `O=C(CCc1nccs1)N1CCc2[nH]cnc2C1c1nc2ccc(Cl)cc2s1` (stereo not drawn), the AC50 was over 5000 nM. In the case of `COCCNc1nnc(C(=O)N2CCc3[nH]cnc3[C@@H]2c2nc3ccccc3s2)o1` (single isomer, unassigned), the AC50 was over 5000 nM. Turning to `O=C(c1ncco1)N1CCc2[nH]cnc2C1c1nc2cc(F)ccc2s1` (stereo not drawn), the AC50 fell in the range of 1000 to 5000 nM. With `O=C(c1cnn2ccc(F)cc12)N1CCc2[nH]cnc2C1c1nc2ccc(Br)cc2[nH]1` (stereo not drawn), the AC50 is over 5000 nM. Same read-out and setting: the same measure for `Cc1ncoc1C(=O)N1CC(C)(C)c2[nH]cnc2C1c1nc2ccccc2s1` (stereo not drawn): over 5000 nM; for `Cc1nc(-c2ccccn2)c(C(=O)N2CCc3[nH]cnc3C2c2nc3ccccc3s2)o1` (stereo not drawn): 1000 to 5000 nM.
